ChEMBL document CHEMBL5303765, “Data for DCP probe BAY-7081” (2023)

Assays:
[1] = target: Transcription initiation factor TFIID subunit 1 (Homo sapiens) (UniProt P21675); assay: TAF1 SGC Tm panel (DSF); details: for ΔTm: Compound concentration 10.0 uM
[2] = target: T1, Phosphorylase b kinase gamma catalytic chain, liver/testis isoform (Homo sapiens) (UniProt P15735); assay: PHKG2 SGC Tm panel (DSF); details: for ΔTm: Compound concentration 10.0 uM
T1 sequence (whole entry): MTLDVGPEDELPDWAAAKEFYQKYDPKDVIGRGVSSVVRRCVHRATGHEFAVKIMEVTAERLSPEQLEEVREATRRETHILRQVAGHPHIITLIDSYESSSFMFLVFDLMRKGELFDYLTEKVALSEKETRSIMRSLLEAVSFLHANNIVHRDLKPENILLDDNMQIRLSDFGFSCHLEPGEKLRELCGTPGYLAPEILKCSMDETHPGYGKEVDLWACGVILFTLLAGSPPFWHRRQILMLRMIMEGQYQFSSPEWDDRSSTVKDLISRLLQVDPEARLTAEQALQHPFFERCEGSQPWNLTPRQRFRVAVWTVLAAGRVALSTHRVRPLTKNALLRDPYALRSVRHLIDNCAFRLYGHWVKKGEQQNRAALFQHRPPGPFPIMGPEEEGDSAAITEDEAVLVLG

[3] = target: Beta-1 adrenergic receptor (Homo sapiens) (UniProt P08588); details: Compound concentration 10.0 uM
Chain of Beta-1 adrenergic receptor (Homo sapiens) (P08588 whole entry, looked up): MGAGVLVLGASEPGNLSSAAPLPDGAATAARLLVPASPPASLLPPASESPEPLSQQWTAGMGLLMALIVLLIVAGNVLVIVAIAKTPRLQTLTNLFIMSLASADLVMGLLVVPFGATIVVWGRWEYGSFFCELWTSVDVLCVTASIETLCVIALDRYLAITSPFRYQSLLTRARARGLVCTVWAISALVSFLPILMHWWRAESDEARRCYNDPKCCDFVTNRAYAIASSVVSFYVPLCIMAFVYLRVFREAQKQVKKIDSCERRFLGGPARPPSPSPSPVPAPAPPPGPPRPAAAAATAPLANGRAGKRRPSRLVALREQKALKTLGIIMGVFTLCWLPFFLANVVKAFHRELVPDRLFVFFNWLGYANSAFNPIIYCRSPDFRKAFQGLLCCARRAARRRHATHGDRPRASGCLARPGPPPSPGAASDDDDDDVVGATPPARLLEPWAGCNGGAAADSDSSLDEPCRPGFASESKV

[4] = target: T2, 5-hydroxytryptamine receptor 2C (Homo sapiens) (UniProt P28335); details: Compound concentration 10.0 uM
T2 sequence (whole entry): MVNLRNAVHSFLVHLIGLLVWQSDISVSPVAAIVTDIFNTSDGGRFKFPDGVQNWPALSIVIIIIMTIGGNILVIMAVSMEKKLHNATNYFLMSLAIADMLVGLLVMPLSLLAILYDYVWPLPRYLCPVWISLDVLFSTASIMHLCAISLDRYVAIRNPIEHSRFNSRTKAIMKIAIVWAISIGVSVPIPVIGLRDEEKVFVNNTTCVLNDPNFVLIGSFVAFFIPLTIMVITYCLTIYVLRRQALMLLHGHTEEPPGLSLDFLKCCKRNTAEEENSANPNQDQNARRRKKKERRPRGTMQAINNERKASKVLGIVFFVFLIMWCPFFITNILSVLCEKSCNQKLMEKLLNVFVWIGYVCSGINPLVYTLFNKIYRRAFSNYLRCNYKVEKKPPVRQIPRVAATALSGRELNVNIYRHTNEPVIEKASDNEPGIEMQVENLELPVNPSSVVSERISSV

[5] = target: Dual specificity protein kinase CLK3 (Homo sapiens) (UniProt P49761); assay: CLK3 SGC Tm panel (DSF); details: for ΔTm: Compound concentration 10.0 uM
Chain of Dual specificity protein kinase CLK3 (Homo sapiens) (P49761 whole entry, looked up): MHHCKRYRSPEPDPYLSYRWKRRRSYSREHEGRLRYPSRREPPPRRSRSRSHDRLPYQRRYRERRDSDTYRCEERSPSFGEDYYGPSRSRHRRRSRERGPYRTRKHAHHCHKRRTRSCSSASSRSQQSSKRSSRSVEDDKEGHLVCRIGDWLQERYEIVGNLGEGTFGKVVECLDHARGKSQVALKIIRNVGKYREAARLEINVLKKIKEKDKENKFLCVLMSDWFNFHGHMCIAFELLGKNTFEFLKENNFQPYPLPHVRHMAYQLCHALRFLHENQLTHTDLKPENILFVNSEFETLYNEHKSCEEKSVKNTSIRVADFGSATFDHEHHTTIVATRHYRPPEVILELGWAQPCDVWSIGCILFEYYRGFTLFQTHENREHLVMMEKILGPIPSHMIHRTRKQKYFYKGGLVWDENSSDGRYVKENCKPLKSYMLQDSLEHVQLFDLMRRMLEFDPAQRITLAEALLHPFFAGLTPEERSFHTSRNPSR

[6] = target: Mitogen-activated protein kinase 9 (Homo sapiens) (UniProt P45984); assay: MAPK9 SGC Tm panel (DSF); details: for ΔTm: Compound concentration 10.0 uM
[7] = target: Serine/threonine-protein kinase 10 (Homo sapiens) (UniProt O94804); assay: STK10 SGC Tm panel (DSF); details: for ΔTm: Compound concentration 10.0 uM
[8] = target: D(3) dopamine receptor (Homo sapiens) (UniProt P35462); details: Compound concentration 10.0 uM
Chain of D(3) dopamine receptor (Homo sapiens) (P35462 whole entry): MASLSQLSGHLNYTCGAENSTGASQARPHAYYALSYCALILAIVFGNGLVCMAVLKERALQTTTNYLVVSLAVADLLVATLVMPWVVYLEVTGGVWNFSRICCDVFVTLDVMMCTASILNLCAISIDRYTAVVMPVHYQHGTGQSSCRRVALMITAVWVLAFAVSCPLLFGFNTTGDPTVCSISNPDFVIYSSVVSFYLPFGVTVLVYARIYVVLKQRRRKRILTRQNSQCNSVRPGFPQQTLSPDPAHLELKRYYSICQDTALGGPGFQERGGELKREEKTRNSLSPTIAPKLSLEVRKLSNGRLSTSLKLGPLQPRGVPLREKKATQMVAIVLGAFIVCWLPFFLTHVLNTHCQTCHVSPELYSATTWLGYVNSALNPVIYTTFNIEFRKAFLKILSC

[9] = target: T3, Serine/threonine-protein kinase VRK1 (Homo sapiens) (UniProt Q99986); assay: VRK1 SGC Tm panel (DSF); details: for ΔTm: Compound concentration 10.0 uM
T3 sequence (whole entry): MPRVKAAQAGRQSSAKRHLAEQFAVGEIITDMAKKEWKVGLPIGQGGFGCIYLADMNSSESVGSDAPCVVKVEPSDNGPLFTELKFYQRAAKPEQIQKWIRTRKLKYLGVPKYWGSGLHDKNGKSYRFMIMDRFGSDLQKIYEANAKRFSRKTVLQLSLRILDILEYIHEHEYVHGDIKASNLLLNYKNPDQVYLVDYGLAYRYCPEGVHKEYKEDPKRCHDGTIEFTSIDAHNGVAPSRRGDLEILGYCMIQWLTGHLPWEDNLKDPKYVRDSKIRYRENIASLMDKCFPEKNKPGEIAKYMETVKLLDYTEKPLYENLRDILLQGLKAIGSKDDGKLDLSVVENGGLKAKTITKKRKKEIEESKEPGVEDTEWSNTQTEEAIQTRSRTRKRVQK

[10] = target: Serine/threonine-protein kinase PAK 4 (Homo sapiens) (UniProt O96013); assay: PAK4 SGC Tm panel (DSF); details: for ΔTm: Compound concentration 10.0 uM
Chain of Serine/threonine-protein kinase PAK 4 (Homo sapiens) (O96013 whole entry, looked up): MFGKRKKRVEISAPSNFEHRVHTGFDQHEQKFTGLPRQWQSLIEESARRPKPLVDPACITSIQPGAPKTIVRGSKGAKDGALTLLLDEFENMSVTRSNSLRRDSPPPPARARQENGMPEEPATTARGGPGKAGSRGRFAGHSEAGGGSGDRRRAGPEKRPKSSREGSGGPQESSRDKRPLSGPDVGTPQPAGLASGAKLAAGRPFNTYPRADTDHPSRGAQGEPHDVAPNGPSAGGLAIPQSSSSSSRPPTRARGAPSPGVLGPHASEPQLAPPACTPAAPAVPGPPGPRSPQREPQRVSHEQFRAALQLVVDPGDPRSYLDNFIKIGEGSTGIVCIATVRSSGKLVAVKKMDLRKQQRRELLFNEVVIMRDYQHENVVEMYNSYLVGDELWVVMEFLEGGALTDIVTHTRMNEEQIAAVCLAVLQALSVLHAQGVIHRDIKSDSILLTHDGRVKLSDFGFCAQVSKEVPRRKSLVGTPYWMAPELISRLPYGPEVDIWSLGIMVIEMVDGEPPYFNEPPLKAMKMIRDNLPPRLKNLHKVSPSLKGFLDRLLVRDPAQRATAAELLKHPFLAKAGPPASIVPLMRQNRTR

[11] = target: Serine/threonine-protein kinase Chk2 (Homo sapiens) (UniProt O96017); assay: CHEK2 SGC Tm panel (DSF); details: for ΔTm: Compound concentration 10.0 uM
Chain of Serine/threonine-protein kinase Chk2 (Homo sapiens) (O96017 whole entry): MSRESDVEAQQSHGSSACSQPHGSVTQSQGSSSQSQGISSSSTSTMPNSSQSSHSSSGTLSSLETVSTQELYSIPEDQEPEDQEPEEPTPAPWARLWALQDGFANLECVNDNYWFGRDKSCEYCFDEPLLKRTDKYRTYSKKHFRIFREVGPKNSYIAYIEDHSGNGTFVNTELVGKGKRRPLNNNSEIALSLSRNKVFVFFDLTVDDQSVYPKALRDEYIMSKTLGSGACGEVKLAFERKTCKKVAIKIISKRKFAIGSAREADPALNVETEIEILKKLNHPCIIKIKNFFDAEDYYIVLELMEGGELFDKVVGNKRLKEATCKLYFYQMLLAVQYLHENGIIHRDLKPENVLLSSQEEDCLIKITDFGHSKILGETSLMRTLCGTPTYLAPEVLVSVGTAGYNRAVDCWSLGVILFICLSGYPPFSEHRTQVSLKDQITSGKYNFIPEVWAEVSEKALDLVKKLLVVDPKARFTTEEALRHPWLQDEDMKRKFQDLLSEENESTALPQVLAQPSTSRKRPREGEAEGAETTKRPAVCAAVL

[12] = target: T4, Alpha-2A adrenergic receptor (Homo sapiens) (UniProt P08913); details: Compound concentration 10.0 uM
T4 sequence (whole entry): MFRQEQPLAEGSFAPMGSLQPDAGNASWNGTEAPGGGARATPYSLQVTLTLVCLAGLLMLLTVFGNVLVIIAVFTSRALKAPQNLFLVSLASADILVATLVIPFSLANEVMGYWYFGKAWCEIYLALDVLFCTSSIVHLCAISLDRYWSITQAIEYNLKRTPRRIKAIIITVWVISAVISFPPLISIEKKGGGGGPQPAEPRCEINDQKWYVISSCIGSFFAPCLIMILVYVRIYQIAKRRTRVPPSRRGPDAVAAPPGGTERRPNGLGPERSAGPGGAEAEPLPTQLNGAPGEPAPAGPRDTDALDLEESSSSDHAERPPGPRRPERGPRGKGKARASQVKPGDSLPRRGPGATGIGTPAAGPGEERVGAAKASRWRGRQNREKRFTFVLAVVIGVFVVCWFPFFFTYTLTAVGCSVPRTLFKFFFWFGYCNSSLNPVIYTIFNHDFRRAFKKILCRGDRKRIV

[13] = target: Mu-type opioid receptor (Homo sapiens, UniProt P35372); details: Compound concentration 10.0 uM
[14] = target: Mitogen-activated protein kinase 14 (Homo sapiens) (UniProt Q16539); assay: MAPK14 SGC Tm panel (DSF); details: for ΔTm: Compound concentration 10.0 uM
Chain of Mitogen-activated protein kinase 14 (Homo sapiens) (Q16539 whole entry): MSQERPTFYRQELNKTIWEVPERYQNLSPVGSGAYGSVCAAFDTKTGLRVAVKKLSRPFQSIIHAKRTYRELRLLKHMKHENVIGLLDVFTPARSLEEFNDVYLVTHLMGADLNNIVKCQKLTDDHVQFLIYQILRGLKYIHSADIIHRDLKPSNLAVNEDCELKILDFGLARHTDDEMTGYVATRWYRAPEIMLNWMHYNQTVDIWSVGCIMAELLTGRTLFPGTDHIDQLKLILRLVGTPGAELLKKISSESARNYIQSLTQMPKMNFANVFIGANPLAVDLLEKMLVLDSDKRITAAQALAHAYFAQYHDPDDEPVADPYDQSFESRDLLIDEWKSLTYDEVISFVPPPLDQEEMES

[15] = target: 5-hydroxytryptamine receptor 7 (Homo sapiens) (UniProt P34969); details: Compound concentration 10.0 uM
[16] = target: Serine/threonine-protein kinase MRCK alpha (Homo sapiens) (UniProt Q5VT25); assay: CDC42BPA SGC Tm panel (DSF); details: for ΔTm: Compound concentration 10.0 uM
[17] = target: Ribosomal protein S6 kinase alpha-1 (Homo sapiens) (UniProt Q15418); assay: RPS6KA1 SGC Tm panel (DSF); details: for ΔTm: Compound concentration 10.0 uM

Chain of Transcription initiation factor TFIID subunit 1 (Homo sapiens) (P21675 whole entry, canonical isoform): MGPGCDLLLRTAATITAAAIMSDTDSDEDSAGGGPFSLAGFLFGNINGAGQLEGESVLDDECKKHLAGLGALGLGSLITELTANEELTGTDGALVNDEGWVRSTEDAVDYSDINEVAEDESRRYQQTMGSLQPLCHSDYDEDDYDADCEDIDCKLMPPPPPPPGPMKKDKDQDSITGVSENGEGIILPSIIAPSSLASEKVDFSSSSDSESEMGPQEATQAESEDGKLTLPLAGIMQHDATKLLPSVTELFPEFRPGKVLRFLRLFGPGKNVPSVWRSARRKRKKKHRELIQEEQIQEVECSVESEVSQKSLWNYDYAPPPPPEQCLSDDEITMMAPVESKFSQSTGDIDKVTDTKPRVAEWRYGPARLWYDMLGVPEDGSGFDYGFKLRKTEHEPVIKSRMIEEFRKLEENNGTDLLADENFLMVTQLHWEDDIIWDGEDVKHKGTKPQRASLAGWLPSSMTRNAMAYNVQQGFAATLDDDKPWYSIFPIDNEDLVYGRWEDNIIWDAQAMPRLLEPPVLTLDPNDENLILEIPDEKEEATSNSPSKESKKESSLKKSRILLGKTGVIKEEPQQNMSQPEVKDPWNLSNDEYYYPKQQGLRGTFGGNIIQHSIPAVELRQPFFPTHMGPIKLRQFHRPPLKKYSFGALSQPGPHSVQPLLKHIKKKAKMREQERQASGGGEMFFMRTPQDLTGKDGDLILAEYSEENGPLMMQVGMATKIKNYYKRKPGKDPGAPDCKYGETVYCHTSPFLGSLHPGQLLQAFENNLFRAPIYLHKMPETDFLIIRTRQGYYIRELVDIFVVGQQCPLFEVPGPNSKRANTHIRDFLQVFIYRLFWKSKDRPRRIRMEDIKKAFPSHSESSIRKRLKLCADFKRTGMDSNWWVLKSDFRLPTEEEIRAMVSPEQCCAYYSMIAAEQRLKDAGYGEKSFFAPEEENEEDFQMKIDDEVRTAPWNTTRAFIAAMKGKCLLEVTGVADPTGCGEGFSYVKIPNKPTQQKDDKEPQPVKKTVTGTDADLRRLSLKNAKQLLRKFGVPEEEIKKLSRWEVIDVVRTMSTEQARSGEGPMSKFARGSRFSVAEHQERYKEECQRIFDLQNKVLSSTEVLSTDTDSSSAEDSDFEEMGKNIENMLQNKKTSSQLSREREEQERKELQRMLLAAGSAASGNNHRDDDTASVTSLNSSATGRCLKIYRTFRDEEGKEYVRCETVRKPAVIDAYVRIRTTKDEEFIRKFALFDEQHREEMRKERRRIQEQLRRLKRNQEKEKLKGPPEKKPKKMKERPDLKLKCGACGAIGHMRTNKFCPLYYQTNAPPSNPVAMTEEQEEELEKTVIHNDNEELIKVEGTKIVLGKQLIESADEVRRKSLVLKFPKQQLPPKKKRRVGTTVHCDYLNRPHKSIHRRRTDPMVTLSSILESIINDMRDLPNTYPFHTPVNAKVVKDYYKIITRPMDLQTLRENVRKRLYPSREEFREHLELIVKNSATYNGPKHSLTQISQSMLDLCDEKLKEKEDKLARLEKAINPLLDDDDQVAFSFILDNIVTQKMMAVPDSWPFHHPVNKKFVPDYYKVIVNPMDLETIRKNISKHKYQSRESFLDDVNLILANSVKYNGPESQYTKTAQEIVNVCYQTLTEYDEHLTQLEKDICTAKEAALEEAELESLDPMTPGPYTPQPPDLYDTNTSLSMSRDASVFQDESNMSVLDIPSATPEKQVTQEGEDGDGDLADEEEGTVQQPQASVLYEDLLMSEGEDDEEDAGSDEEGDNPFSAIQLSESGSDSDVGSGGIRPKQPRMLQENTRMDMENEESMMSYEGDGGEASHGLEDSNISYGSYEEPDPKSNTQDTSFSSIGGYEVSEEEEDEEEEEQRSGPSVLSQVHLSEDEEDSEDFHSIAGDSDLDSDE

| Compound | delta Tm Staurosporine positive control [1] | ΔTm [1] | delta Tm Staurosporine positive control [2] | ΔTm [2] | inhibition [3] [%] | inhibition [4] [%] | delta Tm Staurosporine positive control [5] | ΔTm [5] | delta Tm Staurosporine positive control [6] | ΔTm [6] | delta Tm Staurosporine positive control [7] | ΔTm [7] | inhibition [8] [%] | delta Tm Staurosporine positive control [9] | ΔTm [9] | delta Tm Staurosporine positive control [10] | ΔTm [10] | delta Tm Staurosporine positive control [11] | ΔTm [11] | inhibition [12] [%] | other results |
| --- | --- | --- | --- | --- | --- | --- | --- | --- | --- | --- | --- | --- | --- | --- | --- | --- | --- | --- | --- | --- | --- |
| CCC[C@H]1CNCc2c1[nH]c(=O)c(C#N)c2N1CCC2(CC1)CC2 | 0.516 | 1.56 | 21.5 | -0.755 | -8.08 | 8.81 | 5.3 | -0.402 | 3.03 | -0.605 | 22.2 | -2.2 | 12.3 | 2.35 | -0.355 | 15.1 | 0.134 | 17.8 | 3.11 | 5.64 | inhibition [13]: 26.2%; delta Tm Staurosporine positive control [14]: 0.178; ΔTm [14]: -0.473; inhibition [15]: 16.3%; delta Tm Staurosporine positive control [16]: 3.2; ΔTm [16]: 0.0908; delta Tm Staurosporine positive control [17]: 4.78; ΔTm [17]: -0.0815 |
| CCC[C@@H]1CNCc2c1[nH]c(=O)c(C#N)c2N1CCC2(CC1)CC2 | 0.516 | 0.967 | 21.5 | -0.827 | 5.97 | 9.88 | 5.3 | -0.379 | 3.03 | -0.0844 | 22.2 | -2.3 | -9.68 | 2.35 | -0.315 | 15.1 | 0.121 | 17.8 | -0.386 | 9.55 | inhibition [13]: 57.9%; delta Tm Staurosporine positive control [14]: 0.178; ΔTm [14]: -0.46; inhibition [15]: -2.3%; delta Tm Staurosporine positive control [16]: 3.2; ΔTm [16]: 0.159; delta Tm Staurosporine positive control [17]: 4.78; ΔTm [17]: -0.0442 |
